# Data taken from PubChem BioAssay (NCI).
# Where “and” joins values, the source holds several entries; their conditions need not be identical. Equal entries are not always repeated.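 Cultured in 96-well plates, cells were exposed to test compound for 48 hours across five concentrations. GI50 marks 50% less growth. TGI: concentration producing complete growth inhibition.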
# How the values were obtained:
# Assay in all cases: DTP human tumour cell line panel, 48 h
# [1] = system: HCT-116 colon
# [2] = system: A549 NSCLC
# [3] = system: UACC-257 melanoma
# [4] = system: LOX IMVI melanoma
# [5] = system: HCC-2998 colon
# [6] = system: HOP-62 NSCLC
# [7] = system: SK-MEL-2 melanoma
# [8] = system: SN12C renal
# [9] = system: COLO 205 colon
# [10] = system: SNB-75 CNS
Compound,TGI [1],TGI [2],TGI [3],TGI [4],TGI [5],TGI [6],TGI [7],TGI [8],TGI [9],TGI [10],GI50 [1] [µM],GI50 [2] [µM],GI50 [3],GI50 [4] [µM],GI50 [5] [µM],GI50 [6] [µM],GI50 [7] [µM],GI50 [8] [µM],GI50 [9],GI50 [10] [µM]
C=CC(C)(O)CCC1C(=C)C(O)CC2C(C)(C)CCCC12C (centres undefined),31.8 µM,54.9 µM,39 µM,38.7 µM,33.2 µM,43.6 µM,31.1 µM,33 µM,29.4 µM,> 100 µM,,,,,,,,,,
O=C1c2ccoc2C(=O)c2oc(=O)ccc21,10.3 µM,42 µM,20.8 µM,10.7 µM,> 59 µM,> 61.1 µM,22 µM,24.2 µM,> 55.4 µM,15.6 µM,,,,,,,,,,
Cn1cc(NC(=O)c2cc(NC(=O)CCCCCCCC(=O)Nc3cc(C(=O)Nc4cc(C(=O)NCCC(=N)N)n(C)c4)n(C)c3)cn2C)cc1C(=O)NCCC(=N)N,42.3 µM,36.8 µM,23.8 µM,28.8 µM,30.2 µM,> 100 µM,27.9 µM,41 µM,26 µM,70.8 µM,,,,,,,,,,
CC1=NN(c2nc(N)nc(/C=C\c3ccccc3)n2)C(C)(C)C1,14.2 µM,38.3 µM,20.1 µM,15 µM,26.1 µM,29.7 µM,30.6 µM,26.6 µM,14 µM,25.6 µM,2.76,15.8,5.73 µM,1.99,11.9,14.9,11.2,13.1,2.84 µM,6.36
NC(=O)C(=O)Cc1nc2ccccc2s1,> 100 µM,> 100 µM,> 100 µM,> 100 µM,> 100 µM,> 100 µM,> 100 µM,> 100 µM,> 100 µM,> 100 µM,,,,,,,,,,
O=C(/C=C/c1cccc(Oc2ccc(Cl)cc2)c1)c1ccccc1,41.7 µM,298 µM,344 µM,33 µM,255 µM,272 µM,336 µM,78.4 µM,283 µM,269 µM,20.6,138,185 µM,16.9,117,113,148,28.4,63.4 µM,124
CCc1c(C#N)c(SC(C(N)=O)c2ccccc2)nc(N2CCC(N)CC2)c1C#N (centres undefined),27.4 µM,44.2 µM,29.3 µM,27.4 µM,27.1 µM,30.6 µM,28.5 µM,26 µM,27.8 µM,24.6 µM,13.5,18.4,14.3 µM,14.3,14.1,15.9,14.7,13.1,14.2 µM,11.2
O=c1[nH]c(=O)n(C2CC(O)C(O)C(CO)O2)cc1F (centres undefined),> 100 µM,> 100 µM,> 100 µM,> 100 µM,> 100 µM,> 100 µM,> 100 µM,> 100 µM,> 100 µM,> 100 µM,,,,,,,,,,
N=C(N)c1ccc(OCCCCCOc2ccc(C(=N)N)cc2)cc1,> 50 µM and 37.8 µM and > 100 µM,> 50 µM and 37.1 µM and > 100 µM,26.3 µM and 23.7 µM and 48.9 µM,28.8 µM and 37.8 µM and 36.4 µM,40.4 µM and 28.3 µM,10.6 µM and 32.8 µM and 30.3 µM,16.9 µM and 47.1 µM and 22.4 µM,34.2 µM and 25 µM and 24.7 µM,8.57 µM and 18.4 µM and 29.1 µM,33.1 µM and 18.3 µM and > 100 µM,4.59,0.83,4.44 µM and 7.51 µM and 15.5 µM,8.47,7.15,3.38,7.11,2.02,2.18 µM and 5.19 µM and 11.9 µM,
